Laboratory results: ChEMBL document CHEMBL3885861, “Open TG-GATES”

Species on record: Rattus norvegicus
Experiment: Open TG-GATES - Regimen: Single
Type: toxicity, organism-based, Sprague-Dawley
Design: regimen Single, gender Male, age 6 weeks
Conditions: in vivo, iv, route intravenous injection; for APTT / Bas / Eos / Fbg / Hb / Ht / Lym / MCH / MCHC / MCV / Mono / Neu / PT / Plat / RBC / Ret / WBC: tissue Blood; for KIDNEY_L / KIDNEY_R / KIDNEY_TOTAL: tissue Kidney; for LIVER: tissue Liver; for A/G / ALP / ALT / AST / BUN / CRE / Ca / Cl / DBIL / GLC / IP / K / LDH / Na / PL / RALB / TBIL / TC / TG / TP / gamma-GTP: tissue Plasma
[1] = 40 mg/kg, 3 h, dose level Middle
[2] = 40 mg/kg, 6 h, dose level Middle
[3] = 40 mg/kg, 9 h, dose level Middle
[4] = 40 mg/kg, 24 h, dose level Middle
[5] = 120 mg/kg, 3 h, dose level High
[6] = 120 mg/kg, 6 h, dose level High
[7] = 120 mg/kg, 9 h, dose level High
[8] = 120 mg/kg, 24 h, dose level High

## CN(C)c1ncnc2c1ncn2[C@@H]1O[C@H](CO)[C@@H](N)[C@H]1O [PUROMYCIN AMINONUCLEOSIDE]
[1]
  TERMINAL_BW: 219 g
  APTT: 21.1 s
  Bas: 0%
  Eos: 0.4%
  Fbg: 283.6 mg/dL
  Hb: 12.7 g/dL
  Ht: 38%
  Lym: 55.6%
  MCH: 21.2 pg
  MCHC: 33.6%
  MCV: 63.3 fL
  Mono: 4.2%
  Neu: 38%
  PT: 16.2 s
  Plat: 115.8 x10_4/uL
  RBC: 600.8 x10_4/ul
  Ret: 6.9%
  WBC: 148.2 x10_2/uL
  KIDNEY_L: 0.9 g
  KIDNEY_R: 1 g
  KIDNEY_TOTAL: 1.9 g
  LIVER: 9.9 g
  A/G: 1.2
  ALP: 1624.6 IU/L
  ALT: 39.2 IU/L
  AST: 74 IU/L
  BUN: 14.2 mg/dL
  CRE: 0.2 mg/dL
  Ca: 11.2 mg/dL
  Cl: 105 meq/L
  DBIL: 0.002 mg/dL
  GLC: 177 mg/dL
  IP: 8 mg/dL
  K: 4.3 meq/L
  LDH: 163.4 IU/L
  Na: 140.6 meq/L
  PL: 149 mg/dL
  RALB: 2.9 g/dL
  TBIL: 0.014 mg/dL
  TC: 76.2 mg/dL
  TG: 127.8 mg/dL
  TP: 5.3 g/dL
  gamma-GTP: 1 IU/L
[2]
  TERMINAL_BW: 216.4 g
  APTT: 22.5 s
  Bas: 0%
  Eos: 0.6%
  Fbg: 317.6 mg/dL
  Hb: 13 g/dL
  Ht: 39%
  Lym: 57.2%
  MCH: 21 pg
  MCHC: 33.5%
  MCV: 62.8 fL
  Mono: 3.4%
  Neu: 37.8%
  PT: 15.6 s
  Plat: 134.5 x10_4/uL
  RBC: 620.8 x10_4/ul
  Ret: 6.9%
  WBC: 125.7 x10_2/uL
  KIDNEY_L: 1 g
  KIDNEY_R: 1 g
  KIDNEY_TOTAL: 1.9 g
  LIVER: 9.6 g
  A/G: 1.3
  ALP: 1345.2 IU/L
  ALT: 38.2 IU/L
  AST: 68.6 IU/L
  BUN: 12.8 mg/dL
  CRE: 0.1 mg/dL
  Ca: 11.2 mg/dL
  Cl: 104.2 meq/L
  DBIL: 0 mg/dL
  GLC: 175.2 mg/dL
  IP: 9.6 mg/dL
  K: 4.3 meq/L
  LDH: 166.6 IU/L
  Na: 139.2 meq/L
  PL: 149.2 mg/dL
  RALB: 3 g/dL
  TBIL: 0.024 mg/dL
  TC: 78.4 mg/dL
  TG: 81.6 mg/dL
  TP: 5.4 g/dL
  gamma-GTP: 1.2 IU/L
[3]
  TERMINAL_BW: 210.8 g
  APTT: 21.5 s
  Bas: 0%
  Eos: 1%
  Fbg: 315.4 mg/dL
  Hb: 13 g/dL
  Ht: 38.9%
  Lym: 62%
  MCH: 20.6 pg
  MCHC: 33.4%
  MCV: 61.7 fL
  Mono: 2.2%
  Neu: 34.6%
  PT: 15.9 s
  Plat: 132.8 x10_4/uL
  RBC: 631.6 x10_4/ul
  Ret: 7.2%
  WBC: 96.5 x10_2/uL
  KIDNEY_L: 0.9 g
  KIDNEY_R: 0.9 g
  KIDNEY_TOTAL: 1.9 g
  LIVER: 8.7 g
  A/G: 1.3
  ALP: 1104.4 IU/L
  ALT: 35.8 IU/L
  AST: 67 IU/L
  BUN: 12.6 mg/dL
  CRE: 0.1 mg/dL
  Ca: 11.1 mg/dL
  Cl: 104.2 meq/L
  DBIL: 0.002 mg/dL
  GLC: 176.6 mg/dL
  IP: 10.3 mg/dL
  K: 4.6 meq/L
  LDH: 146 IU/L
  Na: 139.6 meq/L
  PL: 145.4 mg/dL
  RALB: 3.1 g/dL
  TBIL: 0.024 mg/dL
  TC: 76.4 mg/dL
  TG: 103.8 mg/dL
  TP: 5.5 g/dL
  gamma-GTP: 1.6 IU/L
[4]
  TERMINAL_BW: 217.2 g
  APTT: 20.8 s
  Bas: 0%
  Eos: 0.8%
  Fbg: 315.4 mg/dL
  Hb: 13 g/dL
  Ht: 37.9%
  Lym: 85%
  MCH: 21.3 pg
  MCHC: 34.3%
  MCV: 62 fL
  Mono: 3%
  Neu: 10.2%
  PT: 15.9 s
  Plat: 116 x10_4/uL
  RBC: 613.4 x10_4/ul
  Ret: 6%
  WBC: 71.4 x10_2/uL
  KIDNEY_L: 1 g
  KIDNEY_R: 1 g
  KIDNEY_TOTAL: 2 g
  LIVER: 9.9 g
  A/G: 1.3
  ALP: 1315 IU/L
  ALT: 46 IU/L
  AST: 73 IU/L
  BUN: 19.6 mg/dL
  CRE: 0.2 mg/dL
  Ca: 11.4 mg/dL
  Cl: 103.2 meq/L
  DBIL: 0.002 mg/dL
  GLC: 179.2 mg/dL
  IP: 10 mg/dL
  K: 4.5 meq/L
  LDH: 186.2 IU/L
  Na: 140.6 meq/L
  PL: 142 mg/dL
  RALB: 3.1 g/dL
  TBIL: 0.016 mg/dL
  TC: 75 mg/dL
  TG: 89.4 mg/dL
  TP: 5.6 g/dL
  gamma-GTP: 1.6 IU/L
[5]
  TERMINAL_BW: 210.5 g
  APTT: 22.4 s
  Bas: 0%
  Eos: 0.8%
  Fbg: 278.6 mg/dL
  Hb: 12.8 g/dL
  Ht: 37.9%
  Lym: 44.4%
  MCH: 21.1 pg
  MCHC: 33.8%
  MCV: 62.5 fL
  Mono: 3%
  Neu: 51.2%
  PT: 16.3 s
  Plat: 116 x10_4/uL
  RBC: 607 x10_4/ul
  Ret: 6.7%
  WBC: 133.5 x10_2/uL
  KIDNEY_L: 1 g
  KIDNEY_R: 0.9 g
  KIDNEY_TOTAL: 1.9 g
  LIVER: 9 g
  A/G: 1.3
  ALP: 1280.6 IU/L
  ALT: 43.4 IU/L
  AST: 82.8 IU/L
  BUN: 13.8 mg/dL
  CRE: 0.2 mg/dL
  Ca: 11 mg/dL
  Cl: 104.8 meq/L
  DBIL: 0.002 mg/dL
  GLC: 163.2 mg/dL
  IP: 9.3 mg/dL
  K: 4.1 meq/L
  LDH: 162.8 IU/L
  Na: 141.4 meq/L
  PL: 140.4 mg/dL
  RALB: 3 g/dL
  TBIL: 0.032 mg/dL
  TC: 69 mg/dL
  TG: 88.2 mg/dL
  TP: 5.3 g/dL
  gamma-GTP: 1.4 IU/L
[6]
  TERMINAL_BW: 213.9 g
  APTT: 22.1 s
  Bas: 0%
  Eos: 0.6%
  Fbg: 304.8 mg/dL
  Hb: 12.6 g/dL
  Ht: 37.5%
  Lym: 43.2%
  MCH: 20.7 pg
  MCHC: 33.6%
  MCV: 61.6 fL
  Mono: 3.6%
  Neu: 51.2%
  PT: 15.8 s
  Plat: 121.6 x10_4/uL
  RBC: 608.8 x10_4/ul
  Ret: 6.9%
  WBC: 133.1 x10_2/uL
  KIDNEY_L: 0.9 g
  KIDNEY_R: 1 g
  KIDNEY_TOTAL: 1.9 g
  LIVER: 9.3 g
  A/G: 1.3
  ALP: 1220.8 IU/L
  ALT: 40.8 IU/L
  AST: 75 IU/L
  BUN: 11.6 mg/dL
  CRE: 0.1 mg/dL
  Ca: 11.3 mg/dL
  Cl: 103.6 meq/L
  DBIL: 0.004 mg/dL
  GLC: 165.2 mg/dL
  IP: 10.4 mg/dL
  K: 4.3 meq/L
  LDH: 135.8 IU/L
  Na: 140 meq/L
  PL: 151 mg/dL
  RALB: 3 g/dL
  TBIL: 0.042 mg/dL
  TC: 79.8 mg/dL
  TG: 60.4 mg/dL
  TP: 5.4 g/dL
  gamma-GTP: 1.6 IU/L
[7]
  TERMINAL_BW: 213.9 g
  APTT: 22.8 s
  Bas: 0%
  Eos: 1%
  Fbg: 298.6 mg/dL
  Hb: 12.8 g/dL
  Ht: 38.3%
  Lym: 56%
  MCH: 20.9 pg
  MCHC: 33.5%
  MCV: 62.5 fL
  Mono: 2.8%
  Neu: 39.6%
  PT: 15.4 s
  Plat: 116 x10_4/uL
  RBC: 614 x10_4/ul
  Ret: 6.9%
  WBC: 117.1 x10_2/uL
  KIDNEY_L: 1 g
  KIDNEY_R: 1 g
  KIDNEY_TOTAL: 2 g
  LIVER: 8.2 g
  A/G: 1.2
  ALP: 1175.4 IU/L
  ALT: 42 IU/L
  AST: 79.6 IU/L
  BUN: 11.8 mg/dL
  CRE: 0.1 mg/dL
  Ca: 10.8 mg/dL
  Cl: 103.4 meq/L
  DBIL: 0 mg/dL
  GLC: 176.4 mg/dL
  IP: 10.3 mg/dL
  K: 4.2 meq/L
  LDH: 129.2 IU/L
  Na: 139.6 meq/L
  PL: 136.6 mg/dL
  RALB: 3 g/dL
  TBIL: 0.03 mg/dL
  TC: 75.4 mg/dL
  TG: 56.6 mg/dL
  TP: 5.4 g/dL
  gamma-GTP: 1.6 IU/L
[8]
  TERMINAL_BW: 212.8 g
  APTT: 20.5 s
  Bas: 0%
  Eos: 0.6%
  Fbg: 343 mg/dL
  Hb: 12.9 g/dL
  Ht: 37.4%
  Lym: 85%
  MCH: 20.5 pg
  MCHC: 34.6%
  MCV: 59.4 fL
  Mono: 3.8%
  Neu: 9.6%
  PT: 15.7 s
  Plat: 121.3 x10_4/uL
  RBC: 629 x10_4/ul
  Ret: 4.1%
  WBC: 73.2 x10_2/uL
  KIDNEY_L: 0.9 g
  KIDNEY_R: 0.9 g
  KIDNEY_TOTAL: 1.8 g
  LIVER: 9.4 g
  A/G: 1.3
  ALP: 1135 IU/L
  ALT: 39.8 IU/L
  AST: 70 IU/L
  BUN: 27.2 mg/dL
  CRE: 0.2 mg/dL
  Ca: 11.4 mg/dL
  Cl: 103.4 meq/L
  DBIL: 0 mg/dL
  GLC: 171.8 mg/dL
  IP: 10.5 mg/dL
  K: 4.8 meq/L
  LDH: 142.8 IU/L
  Na: 141 meq/L
  PL: 142.4 mg/dL
  RALB: 3.2 g/dL
  TBIL: 0.028 mg/dL
  TC: 79.4 mg/dL
  TG: 59.2 mg/dL
  TP: 5.8 g/dL
  gamma-GTP: 1.4 IU/L
